From patent publication US9290507B2, “B-RAF kinase inhibitors” (Boehringer Ingelheim International GmbH, priority 2010, dated 2016)

Molecular target: B-Raf (V600E)-kinase (Homo sapiens (Human), UniProt P15056, V600E)
Experiment: Kinase test B-Raf (V600E)
Type: biochemical
Conditions: 1 h preincubation, 250 μM ATP
Description: In a dilution series 10 μL/well of test substance solution are placed in a multiwell plate. The dilution series is selected so that generally a range of concentrations of 2 μM to 0.119 nM or 0.017 nM is covered. If necessary the initial concentration of 2 μM is changed to 50 μM, 10 μM or 0.4 μM or 0.2857 μM and further dilution is carried out accordingly. The final concentration of DMSO is 5%. 10 μL/well of the B-Raf (V600E)-kinase solution are pipetted in (containing 0.5 ng B-Raf (V600E)-kinase (e.g. from Upstate) in 20 mM Tris-HCl pH 7.5, 0.1 mM EDTA, 0.1 mM EGTA, 0.286 mM sodium orthovanadate, 10% glycerol, 1 mg/mL bovine serum albumin, 1 mM dithiothreitol) and the mixture is incubated for 1 h at RT under with shaking. The kinase reaction is started by the addition of 20 μL/well ATP solution [final concentration: 250 μM ATP, 30 mM Tris-HCl pH 7.5, 0.02% Brij, 0.2 mM sodium orthovanadate, 10 mM magnesium acetate, 0.1 mM EGTA, phosphatase cocktail (Sigma, #P2850, dilution recommended by the manufacturer)] and 10 μL/well MEK1 solution [containing 50 ng biotinylated MEK1 (prepared from purified MEK1 according to standard procedure, e.g. with EZ-Link Sulpho-NHS-LC-Biotin reagent, Pierce, #21335)] and carried out for 60 min at RT with constant shaking. The reaction is stopped by the addition of 12 μL/well of a 100 mM EDTA solution and incubation is continued for a further 5 min. 55 μL/well of the reaction solution are transferred into a streptavidin-coated plate (e.g. Streptawell HighBond, Roche, #11989685001) and shaken gently for 1 h at RT, in order to bind biotinylated MEK1 to the plate. After elimination of the liquid the plate is washed five times with 200 μL/well of 1×PBS and 100 μL/well solution of primary antibody plus europium-labelled secondary antibody [Anti Phospho-MEK (Ser217/221), Cell Signaling, #9121 and Eu-N1 labelled goat-anti-rabbit antibody, Perkin Elmer, #AD0105] is added, the primary antibody is diluted 1:2000 and the secondary antibody is diluted to 0.4-0.5 μg/mL in Delfia Assay Buffer (Perkin Elmer, #1244-111). After 1 h shaking at RT the solution is poured away and washed five times with 200 μL/well Delfia Wash Buffer (Perkin Elmer, #4010-0010/#1244-114). After the addition of 200 μL/well Enhancement Solution (Perkin Elmer, #4001-0010/#1244-105) the mixture is shaken for 10 min at RT and then measured in a Wallac Victor using the program “Delfia Time Resolved Fluorescence (Europium)”. IC50 values are obtained from these dosage-activity curves using a software program (GraphPadPrizm).

B-Raf (V600E)-kinase, sequence (P15056 whole entry V600E): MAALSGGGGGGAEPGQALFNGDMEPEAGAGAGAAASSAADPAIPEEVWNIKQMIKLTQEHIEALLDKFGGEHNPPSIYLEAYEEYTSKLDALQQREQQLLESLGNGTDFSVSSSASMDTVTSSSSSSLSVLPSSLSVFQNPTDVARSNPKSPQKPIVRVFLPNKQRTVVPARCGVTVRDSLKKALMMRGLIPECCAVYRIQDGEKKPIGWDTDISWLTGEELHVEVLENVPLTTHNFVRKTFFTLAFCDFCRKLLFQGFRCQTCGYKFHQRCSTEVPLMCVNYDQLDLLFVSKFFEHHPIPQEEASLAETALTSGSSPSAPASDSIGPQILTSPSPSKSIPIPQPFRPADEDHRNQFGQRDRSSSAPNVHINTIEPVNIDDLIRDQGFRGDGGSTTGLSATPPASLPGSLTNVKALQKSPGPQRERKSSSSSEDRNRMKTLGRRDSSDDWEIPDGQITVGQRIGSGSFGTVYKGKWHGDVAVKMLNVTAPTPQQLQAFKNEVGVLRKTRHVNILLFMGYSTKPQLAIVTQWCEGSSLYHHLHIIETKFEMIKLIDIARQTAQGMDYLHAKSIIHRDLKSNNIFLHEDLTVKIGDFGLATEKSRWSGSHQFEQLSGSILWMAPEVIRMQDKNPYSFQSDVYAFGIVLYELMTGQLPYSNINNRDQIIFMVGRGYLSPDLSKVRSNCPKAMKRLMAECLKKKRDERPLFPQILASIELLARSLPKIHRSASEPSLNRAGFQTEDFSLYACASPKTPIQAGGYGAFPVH

Row | IC50 | Compound
1 | 0.016 µM | Cc1ccc(C(=O)Nc2cc(C(C)(C)C)nn2C)cc1-n1cc(-c2cncc(N3CCN(C)CC3)c2)nn1 [I-55]
2 | 0.01 µM | Cc1ccc(C(=O)Nc2cc(C(C)(C)C)on2)cc1-n1cc(-c2cncc(N3CCC(N4CCN(C)CC4)CC3)c2)nn1 [I-90]
3 | 0.044 µM | Cc1ccc(C(=O)Nc2cc(C(F)(F)F)ccn2)cc1-n1cc(-c2cncc(N(C)CC3CCCO3)c2)nn1 (stereo not drawn) [I-59]
4 | 0.016 µM | COCCNc1cncc(-c2cn(-c3cc(C(=O)Nc4cc(C(C)(C)C)on4)ccc3C)nn2)c1 [I-36]
5 | 0.045 µM | Cc1ccc(C(=O)Nc2cc(C(C)(C)C)on2)cc1-n1cc(-c2cncc(N(C)CC3CCCO3)c2)nn1 (stereo not drawn) [I-25]
6 | 0.008 µM | Cc1ccc(C(=O)Nc2cc(C(C)(C)C)on2)cc1-n1cc(-c2cncc(N3CCCN(C)CC3)c2)nn1 [I-91]
7 | 0.028 µM | Cc1ccc(C(=O)Nc2cc(C(C)(C)C)on2)cc1-n1cc(-c2cncc(N3CCN(C4CC4)CC3)c2)nn1 [I-26]
8 | 0.008 µM | Cc1ccc(C(=O)Nc2cc(C(C)(C)C)on2)cc1-n1cc(-c2cncc(N(C)C3CCOC3)c2)nn1 (stereo not drawn) [I-10]
9 | 0.009 µM | CCN1CCC2(CCN(c3cncc(-c4cn(-c5cc(C(=O)Nc6cc(C(C)(C)C)on6)ccc5C)nn4)c3)C2)C1 (stereo not drawn) [I-7]
10 | 0.014 µM | Cc1ccc(NC(=O)c2cc(CNC3CCN(C)CC3)c(C(C)(C)C)o2)cc1-n1cc(-c2cncc(N3CCOCC3)c2)nn1 [II-41]
11 | 0.008 µM | CCN1CCN(c2cncc(-c3cn(-c4cc(NC(=O)c5ccc(C(C)(C)C)s5)ccc4C)nn3)c2)CC1 [II-27]
12 | 0.022 µM | C=CCN1CCN(c2cncc(-c3cn(-c4cc(C(=O)Nc5cc(C(C)(C)C)on5)ccc4C)nn3)c2)CC1 [I-6]
13 | 0.006 µM | CCN1CCN(c2cncc(-c3cn(-c4cc(C(=O)Nc5cc(C(C)(C)C)on5)ccc4C)nn3)c2)CC1 [I-48]
14 | 0.007 µM | Cc1ccc(C(=O)Nc2cc(C(F)(F)F)ccn2)cc1-n1cc(-c2cncc(N3CCCC3)c2)nn1 [I-84]
15 | 0.008 µM | Cc1ccc(C(=O)Nc2cc(C(C)(C)C)on2)cc1-n1cc(-c2cncc(N3CCC(N4CCN(C(C)C)CC4)C3)c2)nn1 (stereo not drawn) [I-92]
16 | 0.031 µM | COCC(C)Nc1cncc(-c2cn(-c3cc(C(=O)Nc4cc(C(C)(C)C)on4)ccc3C)nn2)c1 (stereo not drawn) [I-20]
17 | 0.008 µM | Cc1ccc(C(=O)Nc2cc(C(C)(C)C)on2)cc1-n1cc(-c2cncc(N3CCN(C)CC3)c2)nn1 [I-1]
18 | 0.011 µM | COCCN1CCN(c2cncc(-c3cn(-c4cc(C(=O)Nc5cc(C(F)(F)F)ccn5)ccc4C)nn3)c2)CC1 [I-61]
19 | 0.006 µM | Cc1ccc(C(=O)Nc2cc(C(F)(F)F)ccn2)cc1-n1cc(-c2cncc(N3C[C@@H]4C[C@H]3CN4C)c2)nn1 [I-82]
20 | 0.01 µM | Cc1ccc(NC(=O)c2ccc(C(C)(C)C)s2)cc1-n1cc(-c2cncc(N3CCOCC3)c2)nn1 [II-11]
21 | 0.007 µM | Cc1ccc(C(=O)Nc2cc(C(C)(C)C)on2)cc1-n1cc(-c2cncc(N(C)C3CCOCC3)c2)nn1 [I-29]

Row | IC50 | Compound
22 | 0.024 µM | Cc1ccc(C(=O)Nc2cc(C(F)(F)F)ccn2)cc1-n1cc(-c2cncc(N(C)C)c2)nn1 [I-62]
23 | 0.018 µM | Cc1ccc(NC(=O)c2cc(C)n(C(C)(C)C)n2)cc1-n1cc(-c2cncc(N3CCOCC3)c2)nn1 [II-9]
24 | 0.011 µM | Cc1ccc(NC(=O)c2cc(C(C)(C)C)nn2C)cc1-n1cc(-c2cncc(N3CCOCC3)c2)nn1 [II-4]
25 | 0.03 µM | Cc1ccc(C(=O)Nc2cc(C(F)(F)F)ccn2)cc1-n1cc(-c2cncc(N(C)C3CCOCC3)c2)nn1 [I-69]
26 | 0.017 µM | Cc1ccc(C(=O)Nc2cc(C(C)(C)C)on2)cc1-n1cc(-c2cncc(NC(C)C)c2)nn1 [I-14]
27 | 0.005 µM | C=CCN1CCN(c2cncc(-c3cn(-c4cc(NC(=O)c5ccc(C(C)(C)C)o5)ccc4C)nn3)c2)CC1 [II-18]
28 | 0.069 µM | Cc1ccc(C(=O)Nc2cc(C(F)(F)F)ccn2)cc1-n1cc(-c2cncc(N3CCCCC3)c2)nn1 [I-64]
29 | 0.005 µM | Cc1ccc(NC(=O)c2cc(C(C)(C)C)on2)cc1-n1cc(-c2cncc(N3CCN(C)CC3)c2)nn1 [II-8]
30 | 0.019 µM | COCCCN1CCN(c2cncc(-c3cn(-c4cc(C(=O)Nc5cc(C(C)(C)C)on5)ccc4C)nn3)c2)CC1 [I-40]
31 | 0.006 µM | Cc1ccc(C(=O)Nc2cc(C(C)(C)C)on2)cc1-n1cc(-c2cncc(NC3CCOC3)c2)nn1 (stereo not drawn) [I-11]
32 | 0.01 µM | Cc1ccc(C(=O)Nc2cc(C(F)(F)F)ccn2)cc1-n1cc(-c2cncc(NCCN(C)C)c2)nn1 [I-85]
33 | 0.044 µM | Cc1ccc(C(=O)Nc2cc(C(F)(F)F)ccn2)cc1-n1cc(-c2cncc(NC3CC3)c2)nn1 [I-66]
34 | 0.008 µM | Cc1ccc(NC(=O)c2cc(C(C)(C)C)nn2C)cc1-n1cc(-c2cncc(N3CCN(C)CC3)c2)nn1 [II-6]
35 | 0.02 µM | Cc1ccc(C(=O)Nc2cc(C(C)(C)C)on2)cc1-n1cc(-c2cncc(N3CCN(C(C)C)C(C)C3)c2)nn1 (stereo not drawn) [I-37]
36 | 0.007 µM | CCN1CCN(c2cncc(-c3cn(-c4cc(C(=O)Nc5cc(C(F)(F)F)ccn5)ccc4C)nn3)c2)CC1 [I-87]
37 | 0.013 µM | Cc1ccc(C(=O)Nc2cc(C(C)(C)C)on2)cc1-n1cc(-c2cncc(N(C)C)c2)nn1 [I-18]
38 | 0.012 µM | Cc1ccc(C(=O)Nc2cc(C(F)(F)F)ccn2)cc1-n1cc(-c2cncc(N3CCOCC3)c2)nn1 [I-72]
39 | 0.008 µM | Cc1ccc(NC(=O)c2ccc(C(C)(C)C)s2)cc1-n1cc(-c2cncc(N3CCN(CC4CC4)CC3)c2)nn1 [II-31]
40 | 0.016 µM | Cc1ccc(C(=O)Nc2cc(C(F)(F)F)ccn2)cc1-n1cc(-c2cncc(N3CCC3)c2)nn1 [I-57]
41 | 0.011 µM | Cc1ccc(NC(=O)c2cc(CN(C)C)c(C(C)(C)C)o2)cc1-n1cc(-c2cncc(N3CCOCC3)c2)nn1 [II-44]
42 | 0.05 µM | Cc1ccc(C(=O)Nc2cc(C(C)(C)C)on2)cc1-n1cc(-c2cncc(NCC(F)(F)F)c2)nn1 [I-21]
